# Results published in US10759754B2, “Aminobenzoic acid derivatives for use as anti-inflammatory agents, anti-metastatic agents and/or anticancer agents” (3R VALO, S.E.C., priority 2016, dated 2020).
# “Also recorded” adds a separate entry of the source.
# Key:
# [1] = system: IκB / NFκB signaling pathway; experiment: Western blot of phosphorylated IκB in LPS-activated RAW 264.7 cells; type: cell-based, murine; settings: 90 min pretreatment at 20 and 37.5 μM, 100 ng/mL LPS 15 min
# [2] = system: MDA-MB-241 cells; experiment: 3D spheroid-based tumor invasion assay; type: cell-based, human; settings: 30 μM, day 4 vs day 0
# Procedure: Cellular analysis of 3D spheroid-based tumor invasion assays. Cell preparation and spheroid formation were performed following the manufacturer instructions (Corning). Briefly, MDA-MB-231 cells were harvested and diluted to a concentration of 5×10^4 cells/mL in (complete) culture media supplemented with 10% serum. 100 μL of cell suspension was then pipetted to appropriate 96 well spheroid formation plate and placed at 37° C./5% CO2. Spheroid formation was monitored every 24 hours. The typical cell aggregation period was 48 hours. Upon spheroid formation completion, 70 μL of complete medium was removed from each well, and replaced by 70 μL of serum-free medium. This was repeated on a daily basis to create a serum starvation period of 48 hours. Matrigel matrix (100 μL) was then added to each well. The plate was centrifuged at 300×g for 5 minutes in a swinging bucket centrifuge. The plate was then transferred to a 37° C./5% CO2 incubator for one hour to initiate gel formation. Following the 1-hour gel formation incubation period, DMSO or compound 4 was added to appropriate wells during 60 minutes. After pretreatment, the media was removed and replaced by complete culture media, and then the media was changed every day for a period of 4 days. […] These protrusions were identified, and their area and perimeter properly quantified using the ImageJ software (National Institutes of Health).
# [3] = system: macrophage-like J774A.1 cells; experiment: IFNγ/TNFα-induced NO production (Griess) in J774A.1 cells; type: cell-based, murine; settings: pretreatment then IFNγ and TNFα
# Procedure: Evaluation of NO and Urea production by chemical methods. The MB49-I cells and the J774A.1 cells (25×10^3 cells/well) were grown and pretreated, as indicated, with various anti-inflammatory derivatives, precursors and mono-functional derivatives for a period of 3 h. Afterwards the cells were washed twice with 10% FBS RPMI-1640 and then activated to produce NO for a period of 24 h with cytokines INFγ and TNFα. NO production was measured using the Griess reagent method as previously described.^27 This method involves the detection of nitrite ions (NO2^−) formed by the spontaneous oxidation of NO under physiological conditions. According the manufacture procedure (Life Technologies; # G-7921), equal volumes of sulfanilic acid and N-(1-naphthyl)ethylenediamine are mixed together to form the Griess reagent. In the presence of NO2^−, sulfanilic acid is converted to a diazonium salt, which in turn is coupled to N-(1-naphthyl)ethylenediamine to produce a pink coloration that is measured with a spectrophotometer (Biotek, synergy HT) at 548 nm. In the same manner, urea synthesis through arginase-1 activity was measured using commercially available kit.
# [4] = system: MHC-II; experiment: Flow cytometry of MHC-II surface antigen in IFNγ-activated human macrophages; type: cell-based; settings: compound 4 at 10 μM, compound 5 at 25 μM
# Procedure: (§1) Surface antigen expression analysis. To study membrane receptor expression, THP1-derived human macrophages (750×10^4 cells/mL) were pretreated for 3 h with DMSO or compounds 4 and 5, and then left untreated (control) or treated for 48 h with 50 U/mL IFNγ. The expression level of MHC-II and CD40 was evaluated by flow cytometry as described.^21-23
# [5] = system: MB49-I cells; experiment: Relative cell viability of MB49-I cells 24-hour post treatment; type: cell-based, murine; settings: 3 h treatment, 0-50 μM
# Procedure: (§2) Evaluation of cell proliferation by the MTT assay. […] Cells were pretreated for a period of 3 h with vehicle (DMSO) or derivatives 1 and 1A at 0, 10, 25, 37.5, and 50 μM, and then incubated for 24 h in the absence or the presence of INFγ and TNFα. At the end of the culture period, 10 μL of 5 mg/mL methylthiazolyldiphenyl-tetrazolium bromide (MTT) solution was added to each well. After a 3-h incubation period with MTT reagent, 100 μL of MTT solubilization buffer (10% SDS in 10 mM HCl) was added and plates were placed overnight in the cell incubator before absorbance measure. The optical density was read at 580 nm using the Microplate Reader Manager (from Bio-Rad Laboratories).
# [6] = system: CD40; experiment: Flow cytometry of CD40 surface antigen in IFNγ-activated human macrophages; type: cell-based; settings: compound 4 at 10 μM, compound 5 at 25 μM
# Procedure: as §1
# [7] = system: MB49-I tumors; experiment: Ectopic UBC model, MB49-I tumors implanted in the flank of male mice; type: in vivo
# Procedure: Ectopic UBC model. Male C57BL/6J mice (6-8 weeks old), each weighing 15-18 g, were used for the experiments (supplied by Charles River). The mice were housed with free access to food and water on a 12:12 h light:dark cycle with the room temperature maintained at 21° C. MB49 cells, MB49-I cells, and iNOS-deficient MB49-I cells ([…] in 100 μL PBS) were injected subcutaneously (s.c.) into the right flank of the mice. Growth rates of the s.c. tumors were monitored. The size of tumors was determined every 3 days for 24-28 days using a digital caliper and by measuring luciferin luminescence at days 15 and 25 using the IVIS imaging system. A blinded observer measured tumor length and width. The volume of the tumor was calculated from the formula: Length×width2×0.52, where length and width were tumor diameters measured with calipers in mutually perpendicular directions. At a tumor size of approximately 10 mm^3 the mice were divided into different groups. A control group received PBS as treatment. As indicated, other groups were treated at different doses (90, 150 or 300 μM) with an intraperitoneal (i.p.) injection of compounds 4 or 8 every 3-4 days for 18-20 days.^24,27
# [8] = system: MB49 cells; experiment: Relative cell viability of MB49 cells 24-hour post treatment; type: cell-based, murine; settings: 3 h treatment, 0-50 μM
# Procedure: as §2
# [9] = system: human UBC T24 cells; experiment: Microinvasion assay (matrigel in Boyden chamber), M1-induced T24 cell invasion; type: cell-based
# Procedure: Microinvasion assays. Invasion was measured by assessment of human UBC T24 cell migration rate through an artificial basement membrane in a modified Boyden chamber (HTS Transwell System). Briefly, the membrane consisted of a polycarbonate filter with 0.4 μm pores diameter and was coated on ice with Matrigel (BD Biosciences) diluted 1:2 (v/v) in serum-free culture media. T24 cells (50×10^3 cells) were seeded into the Matrigel coat in the upper well of the chamber, while polarized M1 macrophages (50×10^3 cells) were seeded in the lower well. The polycarbonate filter with 0.4 μm pores diameter is too small to left the cells move to the bottom of the lower wells. Thus, non-invading cells into the matrigel coat were removed and cells that migrated down to the polycarbonate filter were stained with Hoescht 33258 dye after a 48-h incubation period, visualized by fluorescence microscopy and counted.
compound,measurement,setting,value
"CC(C)(C)OC(=O)NNC(=O)c1ccc(N2C(=O)C=CC2=O)cc1 [Compound 4, N′-[4-(2,5-dioxo-2,5-dihydro-pyrrol-1-yl)-benzoyl]-hydrazine carboxylic acid tert-butyl ester]",LPS-activated NFκB signaling pathway (ratio p-IkB/IkB),[1],efficient to inhibit
same,invasiveness activity in 3D spheroid-based tumor invasion assay,[2],anti-invasion properties; also recorded: efficiently inhibited
same,combined IFNγ/TNFα-induced NO synthesis,[3],effective in reducing; also recorded: efficiently inhibited
same,IFNγ-induced MHC-II expression,[4],effective in reducing; also recorded: efficiently inhibited
same,relative cell viability / cell survival,[5],stopping cell proliferation
same,IFNγ-induced CD40 expression,[6],effective in reducing; also recorded: efficiently inhibited
same,histological examination of lung specimens,[7]; i.p. 150 μM,no metastatic foci
same,number of lung metastases,[7]; i.p. 150 μM,significant decrease; also recorded: significantly reduce
same,size of subcutaneously implanted MB49-I tumors,[7]; i.p. 150 μM,significantly reduce
same,tumor development of MB49-I cells subcutaneously implanted,[7]; i.p. 150 μM,significant decrease; also recorded: significantly affects
same,tumor volume of muscle-invasive MB49-I tumors,"[7]; i.p. 150 μM during 18 days, tumors recovered day 20",anti-proliferative activity
same,relative cell viability / cell survival,[8],stopping cell proliferation
same,M1-induced human UBC T24 cell invasion,[9],efficiently inhibited
